The test system of data set [1] is Raf Pathway phospho-ERK, Breast. The data set can be described thus: Cellular assay Raf pathway phospho-ERK, breast (Bio-Plex phospho-ERK1/2 immunoassay). Format: cell-based. Particulars: Homo sapiens, inhibition of target phosphorylation in whole cells by 50%. The method, then:
A 96-well phospho-ERK (PERK) immunoassay, using laser flow cytometry platform has been established to measure inhibition of basal pERK in cell lines. MDA-MB-231 cells were plated at 50,000 cells per well in 96-well microtitre plates in complete growth media. For effects of test compounds on basal pERK1/2 inhibition, the next day after plating, MDA-MB-231 cells were transferred to DMEM with 0.1% BSA and incubated with test compounds diluted 1:3 to a final concentration of 3 μM to 12 nM in 0.1% DMSO. Cells were incubated with test compounds for 2 h, washed, and lysed in Bio-Plex whole cell lysis buffer A. Samples are diluted with buffer B 1:1 (v/v) and directly transferred to assay plate or frozen at −80 C degrees until processed. 50 μL of diluted MDA-MB-231 cell lysates were incubated with about 2000 of 5 micron Bio-Plex beads conjugated with an anti-ERK1/2 antibody overnight on a shaker at room temperature. The next day, biotinylated phospho-ERK1/2 sandwich immunoassay was performed, beads are washed 3 times during each incubation and then 50 μL of PE-strepavidin was used as a developing reagent. The relative fluorescence units of pERK1/2 were detected by counting 25 beads with Bio-Plex flow cell (probe) at high sensitivity. The IC50 was calculated by taking untreated cells as maximum and no cells (beads only) as background.

Data set [2] deals with Raf Pathway phospho-ERK, Melanoma. The data set is described as follows: Cellular assay Raf pathway phospho-ERK, melanoma. In kind it is cell-based.
Another data set deals with c-KIT phosphor-AKT. The data set is described as follows: Cellular assay c-KIT pathway phosphor-AKT. In kind it is cell-based.
In data set [3] the test system is MIA PaCa-2 pancreatic (mutant k-Ras) xenograft. The data set can be described thus: Tumor treatment, MIA PaCa-2 xenograft model. Particulars: p.o., qd×14. In kind it is in vivo, CB17 SCID female mice. How it is done: (§1) All treatments were administered p.o. on a qd×14 schedule. […] Similarly, the growth of MIA PaCa-2 tumors was inhibited 44%, 66%, and 73% at dosages of 10, 30, and 100 mg/kg/dose, respectively. The growth of NCI-H460 tumors was inhibited 27% and 56% at dosages of 10 and 30 mg/kg/dose of this Raf kinase inhibitor. The SK-OV-3 model was slightly more sensitive, generating 45%-81% tumor growth inhibitions at dosages of 3 to 100 mg/kg/dose.
HCT 116, SK-OV-3, and MIA PaCa-2 stock tumors were maintained as serial s.c. passages of fragments in CD-1 Nu/Nu female mice (HCT 116 and SK-OV-3) or CB17 SCID female mice (MIA-PaCa-2). Treatments were administered orally and were initiated against established tumors. Tumor dimensions were measured via calipers 2-3 times per week and were converted into tumor mass by the formula […], where L and W refer to the largest and smallest dimensions, respectively.

Data set [4] relates to NCI-H460 lung (mutant k-Ras) xenograft. The data set is described as follows: Tumor treatment, NCI-H460 xenograft model. Format: in vivo. Conditions: p.o., qd×14. The method, then: as §1
For another data set, the system named is phospho-ERK. The data set is described as follows: Immunohistochemical staining of tumor sections with anti-pERK antibodies (melanoma biopsies pre- and post-treatment). In kind it is in vivo, human. Conditions: subject having melanoma, 600 mg BID; post- vs pre-treatment biopsy. The text has this:
3. Immunohistochemical Staining of Tumor Sections with Anti-pERK Antibodies
Activated Raf kinase phosphorylates and activates MEK (mitogen-activated protein kinase kinase), which in turn phosphorylates and activates ERK (extracellular signal-regulated kinase), which translocates to the nucleus and modifies gene expression. This pathway is often aberrantly activated in tumor cells due to the presence of activated ras, mutant BRAF, or elevation of growth factor receptors. A semi-quantitative immunohistochemical method was developed to detect phosphorylated ERK (pERK) in human tumor biopsies as a patient selection biomarker for determining whether a patient will be responsive to a compound of the present invention, and also to assess its efficacy. The antibody used was a polyclonal antibody (rabbit) that detects the phosphorylation status of p44 and p42 (phospho-p44/42 MAPK (Thr202/Tyr204)) MAP kinases (ERK1 and ERK2). The procedure was accomplished as follows:
1. Tumor samples were obtained from patients. Samples were embedded in paraffin and sectioned.
2. […]
20. Each tissue section was assessed using the Bioquant TCW98 image analysis system. […]
A subject having a melanoma was treated with a compound in accordance with the present invention, and then a biopsy sample was assessed using the assay described above. […]

For another data set, the system named is melanoma. The data set can be described thus: Response of a subject having melanoma (PET and CT scans). Format: in vivo, human. Conditions: 600 mg BID. The method, then:
A subject having a melanoma was treated with a compound in accordance with the present invention, and then a biopsy sample was assessed using the assay described above.
The subject was then administered a 600 mg BID dose of the compound.
A response to the compound was observed by comparing PET scans taken at baseline vs. the second cycle. […] This response corresponds with a decrease in the percent of nuclei expressing pERK in the post-treatment biopsy. […] The compound utilized was N-[4-chloro-3-(trifluoromethyl)phenyl]-N′-{4-[2-N-methylcarbamoyl-4-pyridyloxy]phenyl}urea.

A further data set has as its target HER2 Receptor (Homo sapiens, UniProt P04626). Conditions: cellular assay, HER 1 & 2 Pathway.

HER2 Receptor, sequence (P04626 23-1255): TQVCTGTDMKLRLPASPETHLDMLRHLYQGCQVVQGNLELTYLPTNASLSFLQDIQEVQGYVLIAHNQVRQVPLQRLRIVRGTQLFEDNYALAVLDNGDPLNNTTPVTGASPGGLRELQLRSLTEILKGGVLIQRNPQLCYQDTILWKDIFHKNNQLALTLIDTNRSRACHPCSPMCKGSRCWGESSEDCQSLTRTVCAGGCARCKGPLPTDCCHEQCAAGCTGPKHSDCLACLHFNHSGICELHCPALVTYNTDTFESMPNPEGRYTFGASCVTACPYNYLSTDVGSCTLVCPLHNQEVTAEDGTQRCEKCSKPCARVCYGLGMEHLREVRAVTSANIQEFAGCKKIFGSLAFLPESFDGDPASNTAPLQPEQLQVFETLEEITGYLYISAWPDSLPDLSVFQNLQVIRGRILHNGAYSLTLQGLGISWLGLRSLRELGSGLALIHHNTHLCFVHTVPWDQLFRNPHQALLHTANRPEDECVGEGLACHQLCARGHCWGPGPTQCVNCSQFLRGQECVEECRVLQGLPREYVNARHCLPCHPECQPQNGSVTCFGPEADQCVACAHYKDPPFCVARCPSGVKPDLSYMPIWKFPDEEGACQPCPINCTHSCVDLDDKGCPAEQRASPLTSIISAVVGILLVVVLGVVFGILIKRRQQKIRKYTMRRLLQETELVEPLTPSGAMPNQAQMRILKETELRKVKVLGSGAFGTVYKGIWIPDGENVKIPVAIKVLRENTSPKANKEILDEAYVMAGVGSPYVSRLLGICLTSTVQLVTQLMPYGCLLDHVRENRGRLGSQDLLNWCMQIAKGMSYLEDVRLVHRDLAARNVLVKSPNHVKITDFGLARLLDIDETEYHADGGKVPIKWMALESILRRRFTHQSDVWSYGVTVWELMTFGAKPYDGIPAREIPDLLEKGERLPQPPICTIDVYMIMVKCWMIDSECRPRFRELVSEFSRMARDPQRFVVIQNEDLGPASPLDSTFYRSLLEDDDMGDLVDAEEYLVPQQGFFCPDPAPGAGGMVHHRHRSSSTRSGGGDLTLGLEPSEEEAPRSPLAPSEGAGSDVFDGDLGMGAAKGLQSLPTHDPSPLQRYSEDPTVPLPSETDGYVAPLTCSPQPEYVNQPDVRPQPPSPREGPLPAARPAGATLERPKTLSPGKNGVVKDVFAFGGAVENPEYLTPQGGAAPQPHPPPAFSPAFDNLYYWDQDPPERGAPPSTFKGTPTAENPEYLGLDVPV

A word on the melting point: it is the temperature, or range, at which the solid turns liquid. Regarding `COc1ccc(C(F)(F)F)cc1NC(=O)Nc1ccc(Oc2ccnc(C(N)=O)c2)cc1` [Entry 14, 4-[4-({N-[2-methoxy-5-(trifluoromethyl)phenyl]carbamoyl}amino)phenoxy]pyridine-2-carboxamide], the melting point is 114 to 117 °C.

Molecule `CNC(=O)c1cc(Oc2ccc(NC(=O)Nc3cc(C(F)(F)F)ccc3OC)c(C)c2)ccn1` [Entry 16, {4-[4-({N-[2-methoxy-5-(trifluoromethyl)phenyl]carbamoyl}amino)-3-methylphenoxy](2-pyridyl)}-N-methylcarboxamide] had a melting point of 210 to 213 °C.

`CNC(=O)c1cc(Oc2ccc(NC(=O)Nc3cc(C(F)(F)F)ccc3OC)c(Cl)c2)ccn1` [Entry 17, ({2-chloro-4-[2-(N-methylcarbamoyl)(4-pyridyloxy)]phenyl}amino)-N-[2-methoxy-5-(trifluoromethyl)phenyl]carboxamide]: the melting point was in the range of 187 to 188 °C.

Regarding `CCNC(=O)c1cc(Oc2ccc(NC(=O)Nc3cc(C(F)(F)F)ccc3OC)cc2)ccn1` [Entry 19, ({4-[2-(N-ethylcarbamoyl)(4-pyridyloxy)]phenyl}amino)-N-[2-methoxy-5-(trifluoromethyl)phenyl]carboxamide], the melting point was in the range of 194 to 196 °C.

The molecule `CNC(=O)c1cc(Oc2ccc(NC(=O)Nc3cc(C(F)(F)F)ccc3OC)cc2Cl)ccn1` [Entry 20, ({3-chloro-4-[2-(N-methylcarbamoyl)(4-pyridyloxy)]phenyl}amino)-N-[2-methoxy-5-(trifluoromethyl)phenyl]carboxamide] registered a melting point of 214 to 216 °C.

`CNC(=O)c1cc(Sc2ccc(NC(=O)Nc3cc(C(F)(F)F)ccc3OC)cc2)ccn1` [Entry 27, N-[2-methoxy-5-(trifluoromethyl)phenyl]({4-[2-(N-methylcarbamoyl)(4-pyridylthio)]phenyl}amino)carboxamide]: the melting point lay in the range of 218 to 219 °C.

The molecule `CNC(=O)c1cc(Oc2ccc(NC(=O)Nc3ccc(Cl)c(C(F)(F)F)c3)c(Cl)c2)ccn1` [Entry 49, {4-[3-chloro-4-({[4-chloro-3-(trifluoromethyl)phenyl]amino}carbonylamino)phenoxy](2-pyridyl)}-N-methylcarboxamide] yielded a melting point of 147 to 151 °C.

Molecule `CCNC(=O)c1cc(Oc2ccc(NC(=O)Nc3ccc(Cl)c(C(F)(F)F)c3)cc2)ccn1` [Entry 51, N-[4-chloro-3-(trifluoromethyl)phenyl]({4-[2-(N-ethylcarbamoyl)(4-pyridyloxy)]phenyl}amino)carboxamide] came in with a melting point of 187 to 189 °C.

`CNC(=O)c1cc(Oc2ccc(NC(=O)Nc3ccc(Br)c(C(F)(F)F)c3)cc2Cl)ccn1` [Entry 87, {4-[4-({[4-bromo-3-(trifluoromethyl)phenyl]amino}carbonylamino)-2-chlorophenoxy](2-pyridyl)}-N-methylcarboxamide] came in with a melting point of 217 to 219 °C.

Consider `CCNC(=O)c1cc(Oc2ccc(NC(=O)Nc3ccc(Br)c(C(F)(F)F)c3)cc2)ccn1` [Entry 88, N-[4-bromo-3-(trifluoromethyl)phenyl]({4-[2-(N-ethylcarbamoyl)(4-pyridyloxy)]phenyl}amino)carboxamide], for which the melting point fell in the range of 183 to 184 °C.

Take `CNC(=O)c1cc(Oc2ccc(NC(=O)Nc3cc(C(F)(F)F)c(Cl)cc3OC)cc2)ccn1` [Entry 95, N-[4-chloro-2-methoxy-5-(trifluoromethyl)phenyl]({4-[2-(N-methylcarbamoyl)(4-pyridyloxy)]phenyl}amino)carboxamide]: the melting point was in the range of 140 to 144 °C.

With `CNC(=O)c1cc(Oc2ccc(NC(=O)Nc3cc(C(F)(F)F)c(Cl)cc3OC)c(Cl)c2)ccn1` [Entry 96, N-[4-chloro-2-methoxy-5-(trifluoromethyl)phenyl]({2-chloro-4-[2-(N-methylcarbamoyl)(4-pyridyloxy)]phenyl}amino)carboxamide], the melting point is 244 to 245 °C.

Regarding `CNC(=O)c1cc(Oc2ccc(NC(=O)Nc3cc(C(F)(F)F)c(Cl)cc3OC)cc2Cl)ccn1` [Entry 97, N-[4-chloro-2-methoxy-5-(trifluoromethyl)phenyl]({3-chloro-4-[2-(N-methylcarbamoyl)(4-pyridyloxy)]phenyl}amino)carboxamide], the melting point lay within 220 to 221 °C.

As for `CCNC(=O)c1cc(Oc2ccc(NC(=O)Nc3cc(C(F)(F)F)c(Cl)cc3OC)cc2)ccn1` [Entry 99, N-[4-chloro-2-methoxy-5-(trifluoromethyl)phenyl]({4-[2-(N-ethylcarbamoyl)(4-pyridyloxy)]phenyl}amino)carboxamide], the melting point lay in the range of 180 to 181 °C.

By IC50 is commonly meant the point on the concentration scale where inhibition reaches its midpoint. In the case of `CNC(=O)c1cc(Oc2ccc(NC(=O)Nc3ccc(Cl)c(C(F)(F)F)c3)cc2)ccn1` [N-[4-chloro-3-(trifluoromethyl)phenyl]-N′-{4-[2-N-methylcarbamoyl-4-pyridyloxy]phenyl}urea], the results for the IC50 (in data set [1]; in [2]; with c-KIT phosphor-AKT) were 0.08 µM, 0.88 µM and 0.402 µM, respectively. Besides, the “growth of MIA PaCa-2 tumors inhibited” value in [3] (10 mg/kg/dose) came to 44%; in data set [3] (30 mg/kg/dose), 66%; in data set [3] (100 mg/kg/dose), 73%. In addition, the “growth of NCI-H460 tumors inhibited” value was found to be 27% in data set [4] (10 mg/kg/dose) and 56% in data set [4] (30 mg/kg/dose). For the same molecule, the “percent of nuclei expressing pERK in the post-treatment biopsy” value in the data set on phospho-ERK is “decrease”. For the same molecule, the “PET scan metabolic activity after treatment” value with melanoma (baseline vs. second cycle) is reported as “completely silent”. For the same molecule, in the data set with melanoma (through cycle 6 of treatment), the “CT scan measurements by RECIST” value is on record as “stable disease”. The “IC50 (nM)” value against HER2 Receptor is “INACTIVE”.

Source of the values: patent US20070020704A1, “Diaryl ureas with kinase inhibiting activity” (priority 2003, published 2007).
